Tested on: K562
Assay: In vitro antiproliferative activity was measured on human leukemia K562 cells
Assay type: functional, cell-based

SMILES | IC50
CCCCCC(=O)/C=C/[C@]1(O)CC(=O)C=C1C/C=C\CCCC(=O)OC | 6.6 µM
CCCCCC(=O)/C=C/C1[C@H](O)C[C@H](O)[C@@H]1C/C=C\CCCC(=O)OC (stereo not given in full) | 61 µM
CCCCC[C@H](O)/C=C/C1[C@H](O)C[C@H](O)[C@@H]1C/C=C\CCCC(=O)OC (stereo not given in full) | 99 µM
CCCCC[C@H](O)/C=C/C1[C@H](O)CC(=O)[C@@H]1C/C=C\CCCC(=O)OC (stereo not given in full) | 41 µM
CCCCCC(=O)/C=C/[C@]1(O)C[C@@H](O)C=C1C/C=C\CCCC(=O)OC | 20 µM

Results, then the compound that gave them:

IC50 | SMILES
28 µM | CCCCCC(=O)/C=C/[C@H]1[C@H](O)CC(=O)[C@@H]1C/C=C\CCCC(=O)OC
201 µM | CCCCC[C@H](O)/C=C/[C@]1(O)C[C@@H](O)C=C1C/C=C\CCCC(=O)OC
362 µM | CCCCCC(=O)/C=C/C1[C@H](O)C[C@H](O)[C@@H]1C/C=C\CCCC(=O)O (stereo not given in full)
63 µM | CCCCC[C@H](O)/C=C/[C@H]1[C@H](O)CC(=O)[C@@H]1C/C=C\CCCC(=O)O [DINOPROSTONE]
> 700 µM | CCCCC[C@H](O)/C=C/[C@@H]1[C@@H](C/C=C\CCCC(=O)O)[C@@H](O)C[C@H]1O [DINOPROST]

Reference: ChEMBL document CHEMBL1127935, “Synthesis and antiproliferative activity of 15-oxoprostaglandins: Contribution of the -chain enone group to cytotoxicity” (Bioorg Med Chem Lett, 1994)
